Laboratory results as given in the NIST ThermoML archive (doi:10.1016/j.jct.2008.12.004).
± gives the expanded uncertainty stated by the source.

Test: excess molar enthalpy (molar enthalpy of mixing); xn = mol fraction of the nth substance listed
Conditions: 101 kPa, Liquid, Flow calorimetry

CCOC(C)(C)C [2-ethoxy-2-methylpropane] + CCCCCCC
excess molar enthalpy [kcal/mol]
Conditions	298.15 K	313.15 K
x1 = 0.0511	–	0.0101 ± 0.000263
x1 = 0.0512	0.0109 ± 0.000263	–
x1 = 0.1007	0.0212 ± 0.000382	–
x1 = 0.1504	0.0293 ± 0.000478	–
x1 = 0.1507	–	0.0288 ± 0.000478
x1 = 0.2003	0.0387 ± 0.000598	–
x1 = 0.2008	–	0.037 ± 0.000574
x1 = 0.2509	0.0449 ± 0.000669	–
x1 = 0.2511	–	0.0453 ± 0.000669
x1 = 0.3016	0.0512 ± 0.000741	–
x1 = 0.3019	–	0.0507 ± 0.000741
x1 = 0.3505	0.057 ± 0.000813	–
x1 = 0.351	–	0.055 ± 0.000789
x1 = 0.4019	0.0606 ± 0.00086	–
x1 = 0.4024	–	0.0587 ± 0.000837
x1 = 0.4515	0.0647 ± 0.000908	–
x1 = 0.4518	–	0.0601 ± 0.000837
x1 = 0.5014	0.0658 ± 0.000908	–
x1 = 0.5017	–	0.0605 ± 0.00086
x1 = 0.5516	0.0651 ± 0.000908	–
x1 = 0.5519	–	0.0598 ± 0.000837
x1 = 0.6022	0.0636 ± 0.000884	–
x1 = 0.6024	–	0.0586 ± 0.000837
x1 = 0.6509	0.0608 ± 0.00086	–
x1 = 0.6511	–	0.0558 ± 0.000789
x1 = 0.7019	0.0558 ± 0.000789	–
x1 = 0.7022	–	0.0521 ± 0.000741
x1 = 0.7512	0.0501 ± 0.000717	–
x1 = 0.7515	–	0.0465 ± 0.000693
x1 = 0.8008	0.0433 ± 0.000645	–
x1 = 0.801	–	0.04 ± 0.000598
x1 = 0.8507	0.0349 ± 0.00055	–
x1 = 0.8509	–	0.0321 ± 0.000502
x1 = 0.9009	0.0243 ± 0.00043	–
x1 = 0.901	–	0.0225 ± 0.000406
x1 = 0.9492	0.0132 ± 0.000287	–
x1 = 0.9493	–	0.0122 ± 0.000287
x1 = 1	0 ± 0.000239	0 ± 0.000239

Cc1ccccc1 [toluene] + CCCCCCC
excess molar enthalpy [kcal/mol]
Conditions	298.15 K	313.15 K
x2 = 0	0 ± 0.000239	0 ± 0.000239
x2 = 0.0502	0.0295 ± 0.000502	0.0284 ± 0.000478
x2 = 0.1008	0.0551 ± 0.000789	0.053 ± 0.000765
x2 = 0.1501	0.0761 ± 0.00105	0.0732 ± 0.001
x2 = 0.1995	0.094 ± 0.00127	0.09 ± 0.00122
x2 = 0.2507	–	0.104 ± 0.00139
x2 = 0.2508	0.108 ± 0.00143	–
x2 = 0.3002	0.119 ± 0.00155	0.114 ± 0.00151
x2 = 0.3495	0.127 ± 0.00165	–
x2 = 0.3496	–	0.121 ± 0.0016
x2 = 0.4005	0.131 ± 0.00172	–
x2 = 0.4006	–	0.126 ± 0.00165
x2 = 0.4494	0.134 ± 0.00174	–
x2 = 0.4497	–	0.128 ± 0.00167
x2 = 0.4999	0.133 ± 0.00172	0.128 ± 0.00167
x2 = 0.55	0.13 ± 0.0017	0.125 ± 0.00163
x2 = 0.5995	0.125 ± 0.00163	0.119 ± 0.00155
x2 = 0.6505	0.116 ± 0.00153	–
x2 = 0.6506	–	0.111 ± 0.00146
x2 = 0.7009	0.106 ± 0.00141	0.102 ± 0.00136
x2 = 0.7504	0.0935 ± 0.00124	–
x2 = 0.7505	–	0.0899 ± 0.00122
x2 = 0.799	0.0797 ± 0.00108	0.0763 ± 0.00105
x2 = 0.849	0.0631 ± 0.000884	0.0599 ± 0.000837
x2 = 0.9005	0.0431 ± 0.000645	0.0416 ± 0.000621
x2 = 0.9509	0.0221 ± 0.000406	0.0212 ± 0.000382

C1CCCCC1 [cyclohexane] + CCOC(C)(C)C
x2 = 0
Conditions	excess molar enthalpy [kcal/mol]
298.15 K	0 ± 0.000239
313.15 K	0 ± 0.000239

CCCCCC [hexane] + C1CCCCC1
Conditions	excess molar enthalpy [kcal/mol]
298.15 K, x2 = 0	0 ± 0.000263

CCOC(C)(C)C [2-ethoxy-2-methylpropane] + C1CCCCC1
excess molar enthalpy [kcal/mol]
Conditions	298.15 K	313.15 K
x1 = 0.0505	0.0121 ± 0.000287	–
x1 = 0.0506	–	0.0114 ± 0.000287
x1 = 0.1	0.0236 ± 0.000406	–
x1 = 0.1001	–	0.0219 ± 0.000382
x1 = 0.1508	0.0343 ± 0.000526	–
x1 = 0.1509	–	0.0326 ± 0.000526
x1 = 0.2005	0.0433 ± 0.000645	–
x1 = 0.2006	–	0.0417 ± 0.000621
x1 = 0.2514	0.0519 ± 0.000741	–
x1 = 0.2515	–	0.05 ± 0.000717
x1 = 0.3011	0.059 ± 0.000837	–
x1 = 0.3012	–	0.0562 ± 0.000789
x1 = 0.3519	0.0652 ± 0.000908	0.0624 ± 0.000884
x1 = 0.4014	0.0703 ± 0.00098	–
x1 = 0.4015	–	0.0675 ± 0.000932
x1 = 0.4519	0.0741 ± 0.001	–
x1 = 0.452	–	0.0704 ± 0.00098
x1 = 0.5012	0.0761 ± 0.00103	0.0729 ± 0.001
x1 = 0.5513	0.0773 ± 0.00105	0.0736 ± 0.001
x1 = 0.6021	0.0764 ± 0.00105	0.0731 ± 0.001
x1 = 0.6516	0.0739 ± 0.001	–
x1 = 0.6517	–	0.0708 ± 0.00098
x1 = 0.7017	0.0701 ± 0.000956	–
x1 = 0.7019	–	0.0669 ± 0.000932
x1 = 0.7507	0.0643 ± 0.000908	–
x1 = 0.7508	–	0.0616 ± 0.00086
x1 = 0.8002	0.0564 ± 0.000813	0.0535 ± 0.000765
x1 = 0.85	–	0.0439 ± 0.000645
x1 = 0.8501	0.0464 ± 0.000693	–
x1 = 0.9003	0.0339 ± 0.000526	0.0321 ± 0.000502
x1 = 0.9508	0.0182 ± 0.000359	0.0174 ± 0.000359
x1 = 1	0 ± 0.000239	0 ± 0.000239
